Laboratory results as given in US20240018132A1, “5-HYDROXY-1,4-NAPHTHALENEDIONE FOR USE IN THE TREATMENT OF CANCER” (GODAVARI BIOREFINERIES LIMITED, priority 2020, published 2024).

Tests used:
[1] = test system: MDAMB231; experiment: In vitro antiproliferative assay (MTT assay), breast cancer cell line; type: cell-based; conditions: Homo sapiens, MDA-MB-231, 48 h, MTT assay, breast cancer MDAMB231, 48 hrs drug incubation
Procedure: (§1) MTT assay is a simple and sensitive assay where, metabolic reducing activity of the cells is measured. The increase of this activity in time is taken as a parameter of cell growth. If treatment with a drug impairs this increase, the action is a consequence of growth inhibition, cell killing or both. […] All cell lines were cultured in a 37° C. incubator with a 5% CO2 environment. Compounds were dissolved in DMSO with a concentration of 0.1M (stock solution). Cells were seeded into 96-well plates at suitable plating efficiency.
(§2) Following plating efficiencies were standardized for MTT assay:
(§3) In the MTT procedure, the cells were plated in 96 well plates as per predetermined plating efficiency (Table1). The plates were then incubated for 24 hrs in 5% CO2 atmosphere at 37° C. Appropriate concentrations of the drugs were then added to the plate and further incubation was carried out for 48 hrs (in 5% CO2 atmosphere at 37° C.). The assay plate was then centrifuged twice at 3000 rpm for 3 mins and supernatant was then discarded. 100 ul of MTT solution (0.5 mg/ml) was then added to each well of the plate and it was further incubated for 4 hrs (in 5% CO2 atmosphere at 37° C.) Following 4 hr incubation, the plate was then centrifuged twice, and supernatant was aspirated off very carefully. 200 ul of DMSO was then added to each well to solubilize. MTT crystals and mixed well by shaking the plate. XY graph of log percent viability was then plotted against log drug concentration.

[2] = test system: PC3; experiment: In vitro sphere-forming assay (cancer stem cells), Prostosphere media; conditions: for 3D sphere count of PC3: Prostosphere media, 2000 cells/well, n = 6 ± S.D
[3] = test system: MDAMB231; experiment: In vitro sphere-forming assay (cancer stem cells), Mammosphere media; conditions: for 3D sphere count of MDAMB231: Mammosphere media, 2000 cells/well, n = 6 ± S.D
Procedure: In Vitro Sphere-forming Assay: Sphere assay measures the ability of cancer stem cells (CSCs) to form spheres in specially designed serum-free medium.
Mammosphere Media Preparation (For 100 mL): 1 g methyl cellulose autoclaved with magnetic stirrer, 100 ml plain media (MEBM) was added and dissolved under magnetic stirring. After complete dissolution FGF-80 μL, EGF-40 μL, Penstrep-1 mL, Heparin-400 μL was added.
Procedure—The cells were trypsinised and made into single-cell suspension by passing through cell strainers (100 μl and 40 μl, respectively), The cells were diluted at a concentration of 2000 cells/100 μL and suspended in either Mammosphere (for breast cell lines) or Prostosphere (for prostate cell lines). 100 μL of this suspension was added into each well of 96-well suspension plates and incubated at 37° C., 5% CO2 for 24 hrs. Appropriate concentrations of the drugs (2 μL) were added into respective wells with 100 μL of stem cell culture medium. Plates were incubated at 37° C., 50 CO2 for 72 hrs. After incubation, 2.5 μL of the respective drug concentration and 50 μL of stem cell culture medium were added into each well and the plates were further incubated at 37° C., 50% CO2 for 72 hrs. 3 μL of the respective drug concentration was added with 50 μL of stem cell culture medium again after incubation and plates were reincubated for 72 hrs at 37° C., 50 CO2. Number of primary spheres formed for each concentration were counted. The spheres were converted to 0 viability of spheres compared to untreated (Growth Control with DMSO, GCD).

[4] = test system: PC3; experiment: In vitro antiproliferative assay (MTT assay), prostate cancer cell line; type: cell-based; conditions: Homo sapiens, PC-3, 48 h, MTT assay, prostate cancer PC3, 48 hrs drug incubation
Procedure: as §1, §2, §3

[5] = Homo sapiens, PC-3, read-out: % Viability of spheres (PC3)
[6] = Homo sapiens, MDA-MB-231, read-out: % Viability of spheres (MDAMB231)

| Compound | IC50 [1] [nM] | viability at 0.0025 µM [2, 5] [%] | viability at 0.025 µM [2, 5] [%] | viability at 0.25 µM [2, 5] [%] | viability at 2.5 µM [2, 5] [%] | viability at 25 µM [2, 5] [%] | 3D sphere count of PC3 ([2]; drug 0.0025 uM) | 3D sphere count of PC3 ([2]; drug 0.025 uM) | 3D sphere count of PC3 ([2]; drug 0.25 uM) | 3D sphere count of PC3 ([2]; drug 2.5 uM) | 3D sphere count of PC3 ([2]; drug 25 uM) | viability at 0.025 µM [3, 6] [%] | viability at 0.25 µM [3, 6] [%] | viability at 2.5 µM [3, 6] [%] | viability at 25 µM [3, 6] [%] | 3D sphere count of MDAMB231 ([3]; drug 0.025 uM) | 3D sphere count of MDAMB231 ([3]; drug 0.25 uM) | 3D sphere count of MDAMB231 ([3]; drug 2.5 uM) | 3D sphere count of MDAMB231 ([3]; drug 25 uM) | IC50 [4] [nM] | also measured |
| --- | --- | --- | --- | --- | --- | --- | --- | --- | --- | --- | --- | --- | --- | --- | --- | --- | --- | --- | --- | --- | --- |
| O=C1C(Oc2ccc(F)cc2F)=CC(=O)c2c(OCCN3CCOCC3)cccc21 [Formula 74] | 109 | 73 | 56 | 41 | 27 | 17 | 64(±6) | 45(±2) | 36(±4) | 24(±4) | 15(±3) | 48 | 35 | 27 | 12 | 39(±3) | 29(±3) | 22(±4) | 10(±2) | 225 | viability at 0.0025 µM [3, 6]: 73%; 3D sphere count of MDAMB231 ([3]; drug 0.0025 uM): 60(±3) |
| COc1ccc(NC2=CC(=O)c3c(OCCN4CCOCC4)cccc3C2=O)cc1 [Formula 37, 5-(2-morpholinoethoxy)-2-(4-methoxyphenylamino) naphthalene-1,4-dione] | 4610 | – | 89 | 69 | 56 | 37 | – | 89(±3) | 69(±3) | 56(±4) | 37(±4) | 82 | 66 | 56 | 39 | 82(±4) | 66(±5) | 56(±4) | 39(±3) | 4440 | viability at 250 µM [2, 5]: 20%; 3D sphere count of PC3 ([2]; drug 250 uM): 20(±4); viability at 250 µM [3, 6]: 23%; 3D sphere count of MDAMB231 ([3]; drug 250 uM): 23(±3) |
| O=C1C(Oc2ccc(F)cc2)=CC(=O)c2c(OCCCN3CCOCC3)cccc21 [Formula 78] | 5500 | 81 | 68 | 53 | 41 | 30 | 65(±4) | 55(±3) | 43(±3) | 33(±3) | 24(±4) | 67 | 57 | 46 | 35 | 65(±5) | 52(±4) | 42(±4) | 32(±3) | 3460 | viability at 0.0025 µM [3, 6]: 87%; 3D sphere count of MDAMB231 ([3]; drug 0.0025 uM): 79(±3) |
| O=C1C(Oc2ccc(F)c(F)c2)=CC(=O)c2c(OCCN3CCOCC3)cccc21 [Formula 76] | 2480 | 86 | 72 | 55 | 38 | 28 | 69(±3) | 58(±4) | 44(±4) | 31(±3) | 23(±3) | 67 | 56 | 40 | 29 | 61(±2) | 51(±3) | 36(±3) | 26(±4) | 324 | viability at 0.0025 µM [3, 6]: 82%; 3D sphere count of MDAMB231 ([3]; drug 0.0025 uM): 74(±3) |
| O=C1C(Oc2ccc3c(c2)OCO3)=CC(=O)c2c(OCCN3CCOCC3)cccc21 [Formula 46, 5-(2-morpholinoethoxy)-2-(benzo[d][1,3]dioxol-5-yloxy)naphthalene-1,4-dione] | 1370 | 82 | 67 | 51 | 36 | 22 | 66(±3) | 54(±4) | 41(±3) | 29(±3) | 18(±3) | 60 | 49 | 32 | 20 | 54(±4) | 44(±4) | 29(±3) | 18(±3) | 1350 | viability at 0.0025 µM [3, 6]: 74%; 3D sphere count of MDAMB231 ([3]; drug 0.0025 uM): 67(±5) |
| O=C1C(Oc2ccc(F)cc2)=CC(=O)c2c(OCCN3CCOCC3)cccc21 [Formula 75, 5-(2-morpholinoethoxy)-2-(4-fluorophenoxy) naphthalene-1,4-dione] | 566 | 82 | 57 | 47 | 33 | 20 | 66(±4) | 46(±4) | 38(±3) | 27(±3) | 16(±2) | 56 | 45 | 32 | 17 | 45(±3) | 36(±4) | 26(±3) | 14(±3) | 306 | viability at 0.0025 µM [3, 6]: 80%; 3D sphere count of MDAMB231 ([3]; drug 0.0025 uM): 64(±3) |
| O=C1C(Oc2ccc3c(c2)OCO3)=CC(=O)c2c(OCCCCN3CCOCC3)cccc21 [Formula 47, 5-(4-morpholinobutoxy)-2-(benzo[d][1,3]dioxol-5-yloxy)naphthalene-1,4-dione] | 970 | 77 | 57 | 43 | 28 | 18 | 62(±4) | 46(±4) | 35(±3) | 23(±3) | 15(±3) | 59 | 43 | 27 | 17 | 53(±3) | 39(±3) | 25(±5) | 16(±3) | 582 | viability at 0.0025 µM [3, 6]: 78%; 3D sphere count of MDAMB231 ([3]; drug 0.0025 uM): 71(±2) |
